15 molecules from DBAASP can be followed below.

Values after ≈ are worked out from the molar mass of the structure shown.

As usually defined, the MIC is the least concentration at which growth counts as inhibited.

Some test systems named below: Escherichia coli; Staphylococcus aureus; Pseudomonas aeruginosa.
Common to all, as to test: ≥ marks a high value that may be exact or a test limit, other limits are often not marked, values filed in µg/mL are converted to µM
The subject of experiment [1] is Escherichia coli ATCC 25922.
Experiment [2] has as its system Staphylococcus aureus ATCC 29213.
For experiment [3], the system named is Pseudomonas aeruginosa ATCC 27853.

As for `CC[C@H](C)[C@H](NC(=O)[C@H](CCCN=C(N)N)NC(=O)[C@H](CCC(N)=O)NC(=O)[C@@H](NC(=O)[C@@H](NC(=O)[C@H](CCCN=C(N)N)NC(=O)[C@H](CCCCN)NC(=O)[C@@H](N)Cc1ccccc1)[C@@H](C)CC)C(C)C)C(=O)N[C@@H](CCCCN)C(=O)N[C@@H](CC(=O)O)C(=O)N[C@@H](Cc1ccccc1)C(=O)N[C@@H](C)C(=O)N[C@@H](CCCN=C(N)N)C(=O)O` [FKRIVQRIKDFAR], the MIC was 10 µM (≈ 16.8 µg/mL) in experiment [1] and more than 40 µM in experiment [2].

Turning to `CC(C)C[C@H](NC(=O)[C@H](CCCCN)NC(=O)[C@H](CC(C)C)NC(=O)[C@H](CC(C)C)NC(=O)[C@H](CCCCN)NC(=O)[C@H](CCCCN)NC(=O)[C@H](CC(C)C)NC(=O)[C@H](CC(C)C)NC(=O)[C@H](CCCCN)NC(=O)[C@H](CC(C)C)NC(=O)[C@H](CC(C)C)NC(=O)[C@H](CCCCN)NC(=O)[C@H](CCCCN)NC(=O)[C@H](C)N)C(=O)N[C@@H](C)C(=O)NCC(=O)O` [AKKLLKLLKKLLKLAG], the MIC in experiment [1] is 5 µM (≈ 8.89 µg/mL); in experiment [2], 10 µM (≈ 17.8 µg/mL).

On to `CC[C@H](C)[C@H](NC(=O)CNC(=O)[C@H](CC(C)C)NC(=O)[C@@H](NC(=O)[C@@H]1CCCN1C(=O)[C@H](CC(N)=O)NC(=O)[C@H](CC(C)C)NC(=O)[C@H](CC(C)C)NC(=O)CNC(=O)[C@H](CC(N)=O)NC(=O)[C@H](CC(C)C)NC(=O)[C@H](CC(C)C)NC(=O)[C@@H](N)CC(=O)O)C(C)C)C(=O)N[C@@H](C)C(=O)N[C@@H](CC(N)=O)C(=O)NCC(=O)N[C@@H](CC(C)C)C(=O)N[C@H](C(=O)NCC(=O)NCC(=O)N[C@@H](CC(C)C)C(=O)N[C@H](C(=O)N[C@@H](CCCCN)C(=O)N[C@@H](CCCCN)C(N)=O)C(C)C)[C@@H](C)O` [DLLNGLLNPVLGIANGLTGGLVKK], for which the MIC in experiment [1] and in experiment [2] was more than 293 µM each time.

For `CC(C)C[C@H](NC(=O)[C@H](CCCN=C(N)N)NC(=O)CNC(=O)CNC(=O)[C@@H](N)CCCN=C(N)N)C(=O)N[C@H]1CSSC[C@@H](C(=O)N[C@H](C(=O)O)[C@@H](C)O)NC(=O)[C@H](C(C)C)NC(=O)[C@@H]2CSSC[C@H](NC(=O)[C@H](Cc3ccc(O)cc3)NC1=O)C(=O)N[C@@H](CCCN=C(N)N)C(=O)N[C@@H](CCCN=C(N)N)C(=O)N[C@@H](CCCN=C(N)N)C(=O)N[C@@H](Cc1ccccc1)C(=O)N2` [RGGRLCYCRRRFCVCT], the MIC with Escherichia coli came to 0.359 µM (≈ 0.699 µg/mL).

As to `CC[C@H](C)[C@H](NC(=O)[C@H](Cc1c[nH]c2ccccc12)NC(=O)[C@H](CCCCN)NC(=O)[C@@H]1CCCN1C(=O)[C@H](CC(C)C)NC(=O)[C@H](CCCCN)NC(=O)CNC(=O)[C@@H](NC(=O)[C@@H](NC(=O)[C@H](CO)NC(=O)[C@@H](NC(=O)[C@@H](NC(=O)[C@H](CCCCN)NC(=O)[C@H](CCC(N)=O)NC(=O)[C@H](C)N)[C@@H](C)CC)[C@@H](C)CC)[C@@H](C)O)[C@@H](C)CC)C(=O)N[C@H](C(=O)N[C@@H](CCCCN)C(=O)N[C@H](C(=O)N[C@H](C(=O)N[C@@H](CC(N)=O)C(=O)N[C@@H](CCCCN)C(=O)N[C@@H](Cc1ccccc1)C(=O)N[C@H](C(=O)N[C@@H](CCCCN)C(=O)N[C@@H](CCCCN)C(=O)O)[C@@H](C)O)C(C)C)[C@@H](C)O)[C@@H](C)CC` [AQKIISTIGKLPKWIIKTVNKFTKK], the MIC in the experiment on Escherichia coli is 2.5 µM (≈ 7.21 µg/mL).

With `CC[C@H](C)[C@H](NC(=O)[C@H](CCCN=C(N)N)NC(=O)[C@H](CCC(N)=O)NC(=O)[C@@H](NC(=O)[C@H](Cc1cnc[nH]1)NC(=O)[C@H](CCCN=C(N)N)NC(=O)[C@H](CCCCN)NC(=O)[C@@H](N)Cc1ccccc1)C(C)C)C(=O)N[C@@H](CCCCN)C(=O)N[C@@H](CC(=O)O)C(=O)N[C@@H](Cc1ccccc1)C(=O)N[C@@H](CC(C)C)C(=O)N[C@@H](CCCN=C(N)N)C(=O)O` [FKRHVQRIKDFLR], the MIC in experiment [1] was 10 µM (≈ 17.4 µg/mL); in experiment [2], more than 40 µM.

On to `C[C@H](NC(=O)[C@H](C)NC(=O)[C@H](CCCCN)NC(=O)[C@H](C)NC(=O)[C@H](Cc1ccccc1)NC(=O)[C@H](Cc1c[nH]c2ccccc12)NC(=O)[C@H](CCCCN)NC(=O)[C@H](Cc1c[nH]c2ccccc12)NC(=O)[C@H](CCCCN)NC(=O)[C@H](CCCCN)NC(=O)[C@H](C)NC(=O)[C@H](Cc1c[nH]c2ccccc12)NC(=O)[C@@H](N)CCCCN)C(=O)N[C@@H](Cc1c[nH]c2ccccc12)C(=O)N[C@@H](CCCCN)C(=O)N[C@@H](Cc1c[nH]c2ccccc12)C(=O)N[C@@H](Cc1ccc(O)cc1)C(=O)N[C@@H](CCCCN)C(=O)N[C@@H](CCCCN)C(N)=O` [KWAKKWKWFAKAAWKWYKK], for which the MIC in the experiment on Escherichia coli and in the experiment with Staphylococcus aureus was more than 38.9 µM each time.

Molecule `CC[C@H](C)[C@H](NC(=O)[C@H](Cc1ccccc1)NC(=O)[C@H](CO)NC(=O)[C@H](CCCCN)NC(=O)[C@H](Cc1c[nH]c2ccccc12)NC(=O)[C@@H](N)CCCCN)C(=O)N[C@@H](CCCCN)C(=O)N[C@@H](CCCCN)C(=O)N[C@@H](CC(C)C)C(=O)N[C@H](C(=O)N[C@@H](CC(C)C)C(=O)N[C@@H](CCCCN)C(=O)N[C@@H](Cc1ccccc1)C(=O)N[C@@H](CC(C)C)C(=O)N[C@@H](Cc1cnc[nH]1)C(=O)N[C@@H](CO)C(=O)N[C@@H](CCCCN)C(=O)N[C@@H](CCCCN)C(=O)N[C@@H](CCCCN)C(=O)N[C@@H](Cc1ccccc1)C(N)=O)[C@@H](C)O` [KWKSFIKKLTLKFLHSKKKF] showed an MIC in the experiment on Pseudomonas aeruginosa of more than 19.7 µM.

For the molecule `CC[C@H](C)[C@H](NC(=O)[C@H](CCCCN)NC(=O)[C@H](CCCCN)NC(=O)[C@@H](N)CCC(N)=O)C(=O)N[C@@H](C)C(=O)N[C@H](C(=O)N[C@@H](CCCN=C(N)N)C(=O)N[C@@H](CC(C)C)C(=O)N[C@@H](CO)C(=O)N[C@@H](C)C(=O)O)C(C)C` [QKKIAVRLSA], the MIC in experiment [1] was 28.7 µM (≈ 32 µg/mL); in experiment [3], 7.19 µM (≈ 8 µg/mL); in experiment [2], more than 57.5 µM.

With `NCC(=O)N[C@@H](CCCN=C(N)N)C(=O)N[C@@H](CCCN=C(N)N)C(=O)N1CCC[C@H]1C(=O)N[C@@H](CCCN=C(N)N)C(=O)N1CCC[C@H]1C(=O)N[C@@H](CCCN=C(N)N)C(=O)N1CCC[C@H]1C(=O)N[C@@H](CCCN=C(N)N)C(=O)N1CCC[C@H]1C(=O)N[C@@H](Cc1c[nH]c2ccccc12)C(=O)N[C@@H](Cc1c[nH]c2ccccc12)C(=O)N[C@@H](Cc1c[nH]c2ccccc12)C(=O)N[C@@H](Cc1c[nH]c2ccccc12)C(=O)N[C@@H](Cc1c[nH]c2ccccc12)C(=O)O` [GRRPRPRPRPWWWWW], the MIC worked out at 5 µM (≈ 10.9 µg/mL) in experiment [1], 20 µM (≈ 43.5 µg/mL) in experiment [3] and 20 µM (≈ 43.5 µg/mL) in experiment [2].

With `CC(=O)N[C@@H](CCCCN)C(=O)N[C@@H](CC(C)C)C(=O)N[C@@H](CC(C)C)C(=O)N[C@@H](CCCCN)C(=O)N[C@@H](CC(C)C)C(=O)N[C@@H](CC(C)C)C(=O)N[C@@H](CCCCN)C(=O)N1CCC[C@H]1C(=O)N[C@@H](CC(C)C)C(=O)N[C@@H](CC(C)C)C(=O)N[C@@H](CCCCN)C(=O)N[C@@H](CC(C)C)C(=O)N[C@@H](CC(C)C)C(=O)N[C@@H](CCCCN)C(N)=O` [KLLKLLKPLLKLLK], the MIC in experiment [1] is 10 µM (≈ 17 µg/mL); in experiment [2] it was 3.54 µM (≈ 6.02 µg/mL).

For `CC[C@H](C)[C@H](NC(=O)[C@H](Cc1c[nH]c2ccccc12)NC(=O)[C@H](CCCCN)NC(=O)[C@@H]1CCCN1C(=O)[C@H](CC(C)C)NC(=O)[C@H](CCCCN)NC(=O)CNC(=O)[C@@H](NC(=O)[C@@H](NC(=O)[C@H](CO)NC(=O)[C@@H](NC(=O)[C@@H](NC(=O)[C@H](CCCCN)NC(=O)[C@H](CCC(N)=O)NC(=O)[C@H](C)NC(=O)[C@@H](N)CCSC)[C@@H](C)CC)[C@@H](C)CC)[C@@H](C)O)[C@@H](C)CC)C(=O)N[C@H](C(=O)N[C@@H](CCCCN)C(=O)N[C@H](C(=O)N[C@H](C(=O)N[C@@H](CC(N)=O)C(=O)N[C@@H](CCCCN)C(=O)N[C@@H](Cc1ccccc1)C(=O)N[C@H](C(=O)N[C@@H](CCCCN)C(=O)N[C@@H](CCCCN)C(=O)O)[C@@H](C)O)C(C)C)[C@@H](C)O)[C@@H](C)CC` [MAQKIISTIGKLPKWIIKTVNKFTKK], the MIC in the experiment with Escherichia coli came to 3.4 µM (≈ 10.3 µg/mL); against Staphylococcus aureus, 20.8 µM (≈ 62.7 µg/mL).

For `CC[C@H](C)[C@H](NC(=O)CN)C(=O)NCC(=O)N[C@@H](CCCCN)C(=O)N[C@@H](Cc1ccccc1)C(=O)N[C@@H](CC(C)C)C(=O)N[C@@H](Cc1cnc[nH]1)C(=O)N[C@@H](CCCCN)C(=O)N[C@H](C(=O)N[C@@H](CCCCN)C(=O)N[C@@H](CO)C(=O)N[C@@H](Cc1ccccc1)C(=O)NCC(=O)N[C@@H](CCCCN)C(=O)N[C@@H](CO)C(=O)N[C@@H](Cc1c[nH]c2ccccc12)C(=O)N[C@H](C(=O)NCC(=O)N[C@@H](CCC(=O)O)C(=O)N[C@H](C(=O)N[C@@H](CCSC)C(=O)N[C@@H](CC(N)=O)C(=O)N[C@@H](CO)C(N)=O)[C@@H](C)CC)[C@@H](C)CC)C(C)C` [GIGKFLHKVKSFGKSWIGEIMNS], the MIC in experiment [1] worked out at 19 µM (≈ 48.7 µg/mL); in experiment [3], 19 µM (≈ 48.7 µg/mL); in experiment [2] it was 76 µM (≈ 195 µg/mL).

In experiment [2], `CC[C@H](C)[C@H](NC(=O)CNC(=O)[C@H](CCCCN)NC(=O)[C@H](CCCCN)NC(=O)[C@H](CCCCN)NC(=O)[C@@H](N)CCCCN)C(=O)NCC(=O)N[C@@H](CCCCN)C(=O)N[C@@H](Cc1ccccc1)C(=O)N[C@@H](CC(C)C)C(=O)N[C@@H](Cc1cnc[nH]1)C(=O)N[C@@H](CO)C(=O)N[C@@H](C)C(=O)N[C@@H](CCCCN)C(=O)N[C@@H](CCCCN)C(=O)N[C@@H](Cc1ccccc1)C(=O)NCC(=O)N[C@@H](CCCCN)C(=O)N[C@@H](C)C(=O)N[C@@H](Cc1ccccc1)C(=O)N[C@H](C(=O)NCC(=O)N[C@@H](CCC(=O)O)C(=O)N[C@H](C(=O)N[C@@H](CCSC)C(=O)N[C@@H](CC(N)=O)C(=O)N[C@@H](CO)C(=O)O)[C@@H](C)CC)C(C)C` [KKKKGIGKFLHSAKKFGKAFVGEIMNS] yielded an MIC of more than 33.6 µM.

For `CC(C)C[C@H](NC(=O)[C@H](CCCCN)NC(=O)[C@@H]1CSSC[C@H](NC(=O)[C@H](CC(C)C)NC(=O)[C@H](CCCCN)NC(=O)[C@H](CC(C)C)NC(=O)[C@H](CC(C)C)NC(=O)[C@H](CCCCN)NC(=O)[C@H](CCCCN)NC(=O)[C@@H](N)CC(C)C)C(=O)N[C@@H](CCCCN)C(=O)N[C@@H](CCCCN)C(=O)N[C@@H](CC(C)C)C(=O)N1)C(=O)N[C@@H](C)C(=O)NCC(=O)O` [LKKLLKLCKKLCKLAG], the minimum inhibitory concentration (MIC) in experiment [1] is 5 µM (≈ 8.99 µg/mL); against Escherichia coli, 20 µM (≈ 36 µg/mL); in experiment [2] it was more than 40 µM.
